Literature values in patent US11648211B2, “Nanoencapsulated combination drug formulations” (priority 2019, dated 2023).
Where a name gives a salt, the structure may show the parent alone. Read-outs that look alike come from different tables or passages of the source.

Assays:
[1] = human, in vivo
[2] = in vivo
advanced breast cancer = details: in vivo
[3] = in vivo, ip, 5 mg/kg
[4] = test system: SARS-2-S-driven entry into Vero-TMPRSS2 cells
[5] = test system: SARS-2-S-driven entry into Caco-2 cells

CCc1cnn2c(NCc3ccc[n+]([O-])c3)cc(N3CCCC[C@H]3CCO)nc12 [DCB, Dinaciclib]
half-life [1]: 3.3 h
patients with neutropenia [1]: 43%
patients with thrombocytopenia [1]: 3%
patients with grade 3-4 toxicities [2]: 60%
grade 3-4 febrile neutropenia (advanced breast cancer): 11%
grade 3-4 increased transaminase levels (advanced breast cancer): 11%
grade 3-4 leukopenia (advanced breast cancer): 21%
grade 3-4 neutropenia (advanced breast cancer): 47%
half-life [3]: 0.25 h

CN(C)C(=O)COC(=O)Cc1ccc(OC(=O)c2ccc(NC(=N)N)cc2)cc1 [Camostat mesylate]
SARS-2-S-driven entry [4]: partially blocked
SARS-2-S-driven entry [5]: partially blocked

Cn1ncnc1[C@H]1c2n[nH]c(=O)c3cc(F)cc(c23)N[C@@H]1c1ccc(F)cc1 [TLZ, Talazoparib]
patients with anemia, low RBC count (oral): 52%
patients with leukopenia, low WBC count (oral): 17%
patients with thrombocytopenia, low PLT count (oral): 27%
patients with neutropenia (patients treated with TLZ): 35%
